Measured values: patent publication US20110301200A1, “THYROID RECEPTOR LIGANDS” (CADILA HEALTHCARE LIMITED, priority 2008, published 2011)

What was measured:
TR-α = target: T1, TR-α (Homo sapiens, UniProt P10827); test: In vitro TR-α activity (in-house protocol); type: cell-based; conditions: for fold induction at 0.001 µM: Conc. 1 nM; for fold induction at 0.001 µM / fold induction at 0.01 µM / fold induction at 0.1 µM / fold induction at 1 µM: read-out: TR-α Fold Induction w.r.t T3(100 nm); for fold induction at 0.01 µM: Conc. 10 nM; for fold induction at 0.1 µM: Conc. 100 nM; for fold induction at 1 µM: Conc. 1000 nM
T1 sequence (P10827 1-410 isoform P10827-2): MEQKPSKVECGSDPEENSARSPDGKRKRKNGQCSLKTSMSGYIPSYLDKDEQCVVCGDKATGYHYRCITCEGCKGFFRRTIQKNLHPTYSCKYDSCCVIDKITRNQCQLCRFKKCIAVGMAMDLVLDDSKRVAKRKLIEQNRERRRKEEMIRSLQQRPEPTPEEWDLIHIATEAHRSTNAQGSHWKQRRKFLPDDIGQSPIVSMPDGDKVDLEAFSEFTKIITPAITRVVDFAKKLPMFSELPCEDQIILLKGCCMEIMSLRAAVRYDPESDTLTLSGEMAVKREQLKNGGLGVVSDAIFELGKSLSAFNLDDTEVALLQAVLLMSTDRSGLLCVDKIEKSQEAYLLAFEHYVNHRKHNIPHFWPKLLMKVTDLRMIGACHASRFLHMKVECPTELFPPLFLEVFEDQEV
Method: (§1) In vitro TR-α & TR-β activities were determined as per in-house protocols and the results of representative compounds are provided in tables 1 & 2 below as a proof of the efficacies of the novel class of compounds disclosed above.

TR-β = target: T2, TR-β (Homo sapiens, UniProt P10828); test: In vitro TR-β activity (in-house protocol); type: cell-based; conditions: for fold induction at 0.001 µM: Conc. 1 nM; for fold induction at 0.001 µM / fold induction at 0.01 µM / fold induction at 0.1 µM / fold induction at 1 µM: read-out: TR-β Fold Induction w.r.t T3(100 nm); for fold induction at 0.01 µM: Conc. 10 nM; for fold induction at 0.1 µM: Conc. 100 nM; for fold induction at 1 µM: Conc. 1000 nM
T2 sequence (P10828 1-461): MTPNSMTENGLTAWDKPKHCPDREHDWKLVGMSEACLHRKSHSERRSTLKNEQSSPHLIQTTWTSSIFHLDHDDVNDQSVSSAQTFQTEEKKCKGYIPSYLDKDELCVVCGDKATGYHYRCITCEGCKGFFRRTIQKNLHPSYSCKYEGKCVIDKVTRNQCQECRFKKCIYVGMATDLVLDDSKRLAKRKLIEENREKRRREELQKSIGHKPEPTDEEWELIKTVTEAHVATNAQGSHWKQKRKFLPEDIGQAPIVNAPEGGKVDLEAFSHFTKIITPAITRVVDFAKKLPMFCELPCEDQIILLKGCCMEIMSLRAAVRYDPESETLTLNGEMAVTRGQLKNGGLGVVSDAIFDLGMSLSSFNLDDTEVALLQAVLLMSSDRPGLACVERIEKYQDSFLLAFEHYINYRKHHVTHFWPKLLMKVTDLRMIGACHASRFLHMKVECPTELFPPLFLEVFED
Method: as §1

cholesterol-fed rats = test: Cholesterol lowering and change in heart rate in cholesterol-fed rats; type: in vivo, rat; conditions: oral 13 μg/kg, treated for 7 days
Method: Cholesterol lowering effect of T3 and selected compounds disclosed in the present invention on cholesterol lowering and change in heart rate in cholesterol-fed rats (treated for 7 days) was determined according to the general protocol described in PNAS, vol. […] Therefore, these compounds have the potential to be further developed as selective TR-beta agonists for the treatment of human & other animals in need of such treatment.

Row | SMILES | fold induction at 0.001 µM (TR-α) | fold induction at 0.01 µM (TR-α) | fold induction at 0.1 µM (TR-α) | fold induction at 1 µM (TR-α) | fold induction at 0.001 µM (TR-β) | fold induction at 0.01 µM (TR-β) | fold induction at 0.1 µM (TR-β) | fold induction at 1 µM (TR-β) | EC50 (TR-α) [nM] | EC50 (TR-β) [nM] | % Change in Heart Rate (cholesterol-fed rats) [%] | % Change in Total Cholesterol (cholesterol-fed rats) [%]
1 | O=C(O)CON=Cc1cc(Br)c(Oc2ccc(O)c(C(=O)c3ccc(Cl)cc3)c2)c(Br)c1 [Example 28, 2-(((3,5-dibromo-4-(3-(4-chlorobenzoyl)-4-hydroxyphenoxy)benzylidene)amino)oxy)acetic acid] | 16.2 | 25 | 40.4 | 54.5 | 10.2 | 26.4 | 61.7 | 58.9 | – | – | – | –
2 | O=C(O)CON=Cc1cc(Br)c(Oc2ccc(O)c(C(O)c3ccc(Cl)cc3)c2)c(Br)c1 (centres unmarked) [Example 29, 2-(((3,5-dibromo-4-(3-((4-chlorophenyl)(hydroxy)methyl)-4-hydroxyphenoxy)benzylidene)amino)oxy)acetic acid] | 17.6 | 21.2 | 29.9 | 64.2 | 10.6 | 12.1 | 33.5 | 68.5 | – | – | – | –
3 | CC(ON=Cc1cc(Br)c(Oc2ccc(O)c(C(=O)c3cccc(Cl)c3)c2)c(Br)c1)C(=O)O (centres unmarked) [Example 30, 2-(((3,5-dibromo-4-(3-(3-chlorobenzoyl)-4-hydroxyphenoxy)benzylidene)amino)oxy)propanoic acid] | – | – | – | – | – | – | – | – | 143 | 166 | – | –
4 | O=C(O)CON=Cc1cc(Br)c(Oc2ccc(O)c(C(=O)c3ccc(Br)cc3)c2)c(Br)c1 [Example 31, 2-(((3,5-dibromo-4-(3-(4-bromobenzoyl)-4-hydroxyphenoxy)benzylidene)amino)oxy)acetic acid] | 13.7 | 17.2 | 38.3 | 39.2 | 11.8 | 14.3 | 41.5 | 50.3 | – | – | – | –
5 | O=C(O)CON=Cc1cc(Br)c(Oc2ccc(O)c(C(O)c3ccc(Br)cc3)c2)c(Br)c1 (centres unmarked) [Example 32, 2-(((3,5-dibromo-4-(3-((4-bromophenyl)(hydroxy)methyl)-4-hydroxyphenoxy)benzylidene)amino)oxy)acetic acid] | 20.4 | 16.8 | 22.8 | 69.8 | 11.8 | 12.9 | 14.5 | 65 | – | – | – | –
6 | O=C(O)CON=Cc1cc(Br)c(Oc2ccc(O)c(C(=O)c3cccc(Cl)c3)c2)c(Br)c1 [Example 33, 2-(((3,5-dibromo-4-(3-(3-chlorobenzoyl)-4-hydroxyphenoxy)benzylidene)amino)oxy)acetic acid] | 18.7 | 32.2 | 52.1 | 74 | 14 | 30.1 | 72.5 | 62.1 | – | – | – | –
7 | CC(ON=Cc1cc(Br)c(Oc2ccc(O)c(C(O)c3cccc(Cl)c3)c2)c(Br)c1)C(=O)O (centres unmarked) [Example 34, 2-(((3,5-dibromo-4-(3-((3-chlorophenyl)(hydroxy)methyl)-4-hydroxyphenoxy)benzylidene)amino)oxy)propanoic acid] | 14.1 | 11.8 | 17.9 | 39.8 | 10.9 | 9.74 | 21.4 | 47.5 | – | – | – | –
8 | O=C(O)CON=Cc1cc(Br)c(Oc2ccc(O)c(C(O)c3cccc(Cl)c3)c2)c(Br)c1 (centres unmarked) [Example 35, 2-(((3,5-dibromo-4-(3-((3-chlorophenyl)(hydroxy)methyl)-4-hydroxyphenoxy)benzylidene)amino)oxy)acetic acid] | – | – | – | – | – | – | – | – | 2100 | 4900 | – | –
9 | CC(ON=Cc1cc(Br)c(Oc2ccc(O)c(S(=O)(=O)N3CCCCC3)c2)c(Br)c1)C(=O)O (centres unmarked) [Example 36, 2-(((3,5-dibromo-4-(4-hydroxy-3-(piperidin-1-ylsulfonyl)phenoxy)benzylidene)amino)oxy)propanoic acid] | 14.1 | 15.4 | 57.8 | 128 | 11 | 19.7 | 58.2 | 107 | – | – | – | –
10 | CC(C)NS(=O)(=O)c1cc(Oc2c(Br)cc(C=NOC(C)C(=O)O)cc2Br)ccc1O (centres unmarked) [Example 37, 2-(((3,5-dibromo-4-(4-hydroxy-3-(N-isopropylsulfamoyl)phenoxy)benzylidene)amino)oxy)propanoic acid] | 11.2 | 11.5 | 17.6 | 45.6 | 8.41 | 9.07 | 17.7 | 60.5 | – | – | – | –
11 | CCN(CC)S(=O)(=O)c1cc(Oc2c(Br)cc(C=NOC(C)C(=O)O)cc2Br)ccc1O (centres unmarked) [Example 38, 2-(((3,5-dibromo-4-(3-(N,N-diethylsulfamoyl)-4-hydroxyphenoxy)benzylidene)amino)oxy)propanoic acid] | 10.1 | 16.4 | 25.3 | 76.2 | 11.8 | 13.6 | 25 | 82.2 | – | – | – | –
12 | CC(ON=Cc1cc(Br)c(Oc2ccc(O)c(S(=O)(=O)NC3CCCCC3)c2)c(Br)c1)C(=O)O (centres unmarked) [Example 39, 2-(((3,5-dibromo-4-(3-(N-cyclohexylsulfamoyl)-4-hydroxyphenoxy)benzylidene)amino)oxy)propanoic acid] | 10.6 | 11.8 | 13.5 | 29.5 | 11.5 | 11.2 | 15.8 | 40.4 | – | – | – | –
13 | CC(ON=Cc1cc(Br)c(Oc2ccc(O)c(S(=O)(=O)N[C@@H]3C[C@H]4CC[C@@H]3C4)c2)c(Br)c1)C(=O)O (stereo partly drawn) [Example 40, 2-(((4-(3-(N-((1R,2R,4S)-bicyclo[2.2.1]heptan-2-yl)sulfamoyl)-4-hydroxyphenoxy)-3,5-dibromobenzylidene)amino)oxy)propanoic acid] | 10.7 | 9.07 | 10.1 | 16.7 | 10.1 | 9.01 | 10.9 | 36.5 | – | – | – | –
14 | O=C(O)CON=Cc1cc(Br)c(Oc2ccc(O)c(S(=O)(=O)N3CCCC3)c2)c(Br)c1 [Example 41, 2-(((3,5-dibromo-4-(4-hydroxy-3-(pyrrolidin-1-ylsulfonyl)phenoxy)benzylidene)amino)oxy)acetic acid] | 12.6 | 12.8 | 17.7 | 46.1 | 6.51 | 6.74 | 14 | 58.1 | – | – | – | –
15 | CC(ON=Cc1cc(Br)c(Oc2ccc(O)c(S(=O)(=O)N3CCCC3)c2)c(Br)c1)C(=O)O (centres unmarked) [Example 42, 2-(((3,5-dibromo-4-(4-hydroxy-3-(pyrrolidin-1-ylsulfonyl)phenoxy)benzylidene)amino)oxy)propanoic acid] | 17.7 | 9.9 | 20.4 | 91.4 | 7.3 | 4.48 | 15 | 60.8 | – | – | – | –
16 | N[C@@H](Cc1cc(I)c(Oc2ccc(O)c(I)c2)c(I)c1)C(=O)O [Example T3, reference compound] | – | – | – | – | – | – | – | – | – | – | 14 | −46
